Measurements from PMC9501899 (Journal of the American Chemical Society, 2022).
≈ marks a conversion by molar mass, not a printed value. Where two headings read alike, the source gives them in different places.

Assays:
LRRK2 [1] = test: Western blot screening of PROTACs in WT and G2019S LRRK2 MEFs; type: cell-based, mouse
Description: These PROTACs were then biologically evaluated in mouse embryonic fibroblasts (MEFs) by Western blotting. Briefly, MEFs were treated with compounds at 33 nM and 1 μM for 4 h (Figure 2) and 24 h (Figure S2) separately, and the intracellular level of LRRK2, phosphorylated LRRK2 at Ser935, and phosphorylated Rab10 (pRab10) at Thr73 was determined. Rab10[5],[49] is one of the bona fide substrates of LRRK2, whose phosphorylation status is directly affected by the LRRK2 kinase activity and protein level. Phosphorylation of LRRK2 at Ser935 is a well-studied biomarker site used to assess the efficacy of type 1 LRRK2 inhibitors.[30]
Primary MEFs were generated as described in a previous study.[80] Briefly, the uterine horn was collected from adult female mice at day E12.5 and transferred to a 10 cm tissue culture dish containing cold PBS. Two forceps were used to tear the yolk sacs to isolate each embryo. Forceps were cleaned thoroughly with 70% ethanol between each embryo isolation. The embryos were culled, and a tissue piece was collected in a polymerase chain reaction (PCR) tube for genotyping. The red tissue of the embryo was removed, and the remainder was minced with a scalpel blade and incubated with a 7.5 mL trypsin–ethylenediaminetetraacetic acid (EDTA) solution for 10 min in a 37 °C, 5% CO2 tissue culture incubator. The dish was removed from the incubator and checked under a light microscope for single cells. Complete media (7.5 mL) was added to the trypsinized cells, and the cell suspension was transferred to a 15 mL Falcon tube and centrifuged at 1200 rpm for 5 min at room temperature. The trypsin was aspirated, the cell pellet was resuspended in a 5 mL fresh complete media, and the cell suspension was plated in a 60 mm tissue culture dish and incubated in a 37 °C, 5% CO2 tissue culture incubator. The MEFs at this stage were considered as passage 0 and were passaged and expanded for experimental use once the genotype was confirmed by allelic sequencing and immunoblotting. MEFs were cultured in Dulbecco’s modified Eagle’s medium (DMEM) containing 10% (v/v) fetal bovine serum (FBS), 2 mM L-glutamine, 100 U/mL penicillin, and 100 μg/mL streptomycin supplemented with 1× nonessential amino acids and 1 mM sodium pyruvate.
Culturing and passaging of adherent cell lines were carried out using an aseptic technique in CL1 or CL2 (for PBMC isolation) biological safety cabinets. All cells were incubated in a 37 °C incubator with 5% CO2. Cell lines were regularly tested for mycoplasma contamination. For Western blot assay, the cells were seeded in six-well plates.

LRRK2 [2] = test: LRRK2 degradation in multiple cell lines (summary); type: cell-based
Text: Leucine-rich repeat kinase 2 (LRRK2) is one of the most promising targets for Parkinson’s disease.

LRRK1, VPS35, PPM1H = test: TMT-based global proteomic profiling in WT MEFs, LRRK2-related proteins; type: cell-based, mouse; settings: 300 nM, 4 h
[3] = Solubility in phosphate buffer and FeSSIF; type: physicochemical
Description: Eight microliters of reference or test compound stock solution (10 mM in DMSO) was added to 792 μL of 100 mM phosphate buffer (pH 7.4) or FeSSIF (pH 5.8). The resulting mixture was shaken for 1 h (1000 rpm) at room temperature and then centrifuged for 10 min (12 000 rpm) to remove the undissolved particles. The supernatant was collected and diluted 10 times and 100 times separately with 100 mM phosphate buffer or FeSSIF. Five microliters of the supernatant samples (no diluted, 10 times diluted, 100 times diluted) were mixed with 95 μL of acetonitrile (containing internal standard) separately before injecting into LC-MS/MS for analysis.

Row | SMILES | degradation of LRRK2 (LRRK2 [1]; 0.033 µM) [%] | degradation of LRRK2 (in words) (LRRK2 [1]; 33 nM/4 h, WT and G2019S LRRK2 MEFs) | DC50 (LRRK2 [2]) [nM] | Dmax values (LRRK2 [2]) [%] | levels of LRRK1, VPS35 and PPM1H (in words) (LRRK1, VPS35, PPM1H) | solubility at 1 h ([3]; 100 mM phosphate buffer, pH 7.4, read-out: solubilities in PBS (pH 7.4)) [µM] | solubility at 1 h ([3]; FeSSIF, pH 5.8, read-out: solubility in FeSSIF (pH 5.8)) [µM]
1 | CNc1nc(Nc2ccc(C(=O)N3CCN(CCOCCOCCSC(C)(C)[C@H](NC(=O)C4(F)CC4)C(=O)N4C[C@H](O)C[C@H]4C(=O)NCc4ccc(-c5scnc5C)cc4)CC3)cc2OC)ncc1Cl [SD75] | < 40 | little to no degradation |  |  |  |  | 
2 | CNc1nc(Nc2ccc(C(=O)N3CCN(C[C@H]4CC[C@H](CSC(C)(C)[C@H](NC(=O)C5(F)CC5)C(=O)N5C[C@H](O)CC5C(=O)NCc5ccc(-c6scnc6C)cc5)CC4)CC3)cc2OC)ncc1Cl (stereo partly drawn) [XL01126, (2S,4R)-1-((R)-3-((((1R,4R)-4-((4-(4-((5-Chloro-4-(methylamino)pyrimidin-2-yl)amino)-3-methoxybenzoyl)piperazin-1-yl)methyl)cyclohexyl)methyl)thio)-2-(1-fluorocyclopropane-1-carboxamido)-3-methylbutanoyl)-4-hydroxy-N-(4-(4-methylthiazol-5-yl)benzyl)pyrrolidine-2-carboxamide] |  |  | 14 to 72 | 82 to 90 | remained unaffected | 0.55 (≈ 0.561 µg/mL) | 26.1 (≈ 26.6 µg/mL)
